Values of other authors, collected in patent publication US9603852B2, “Treatment of obesity and pulmonary arterial hypertension” (ALBERT EINSTEIN COLLEGE OF MEDICINE, INC., priority 2013, dated 2017).
Read-outs that look alike come from different tables or passages of the source.

Biological target: T1, rat PGT (Rattus norvegicus, UniProt Q00910)
T1 construct: expressed in transfected cells
Conditions: cited from earlier work; for Inh (% of Ctl) 0.01 μM: 0.01 μM compound; for Inh (% of Ctl) 0.01 μM / Inh (% of Ctl) 0.05 μM: second part of Table 1; for Inh (% of Ctl) 0.05 μM: 0.05 μM compound; for Inh (% of Ctl) 0.1 μM: 0.1 μM compound; for Inh (% of Ctl) 0.5 μM: 0.5 μM compound; for Inh (% of Ctl) 2.5 μM: 2.5 μM compound

[1] = second part of Table 1 (Cpd 130-151)

Row | SMILES | Inh (% of Ctl) 0.01 μM | Inh (% of Ctl) 0.05 μM | Inh (% of Ctl) 0.1 μM [1] | other results
1 | O=C(NCCOCCNc1nc(Nc2ccc(O)cc2)nc(Nc2ccc(C(=O)NCc3ccccc3)cc2)n1)Nc1ccccc1 [Compound 139] | 16.3 % of Ctl | 30.7 % of Ctl | 39.0 % of Ctl | –
2 | O=C(NCCOCCOCCNc1nc(Nc2ccc(O)cc2)nc(Nc2ccc(C(=O)NCc3cc(F)cc(F)c3)cc2)n1)c1ccccc1 [Compound 130] | 41.6 % of Ctl | 73.2 % of Ctl | 81.7 % of Ctl | –
3 | O=C(NCc1ccccc1)c1ccc(Nc2nc(NCCOCCNCc3ccccc3)nc(Nc3ccc(O)cc3)n2)cc1 [Compound 141] | 12.7 % of Ctl | 22.0 % of Ctl | 43.5 % of Ctl | –
4 | COC(=O)c1cc(Nc2nc(NCCOCCOCCNC(=O)c3ccccc3)nc(Nc3ccc(C(=O)NCc4ccc(F)cc4)cc3)n2)ccc1O [Compound 144] | 3.4 % of Ctl | 5.8 % of Ctl | 10.8 % of Ctl | –
5 | O=C(NCc1ccc(F)cc1)c1ccc(Nc2nc(Nc3ccc(O)cc3)nc(Nc3ccc(O)cc3)n2)cc1 [Compound 145] | 7.1 % of Ctl | 3.1 % of Ctl | 6.9 % of Ctl | –
6 | O=C(O)c1cccc(Nc2nc(NCCOCCOCCNC(=O)c3ccccc3)nc(Nc3ccc(C(=O)NCc4ccc(F)cc4)cc3)n2)c1 [Compound 150] | 4.2 % of Ctl | 14.3 % of Ctl | 23.9 % of Ctl | –
7 | O=C(NCCOCCOCCNc1nc(Nc2ccc(O)cc2)nc(Nc2ccc(C(=O)NCc3ccccc3)cc2)n1)c1ccccc1 [Compound 116] | – | – | – | Inh (% of Ctl) 0.1 μM (first part of Table 1): 36.4 % of Ctl; Inh (% of Ctl) 0.5 μM (0.5 µM): 59.4 % of Ctl
8 | O=C(NCCOCCNc1nc(Nc2ccc(O)cc2)nc(Nc2ccc(C(=O)NCc3ccc(F)cc3)cc2)n1)c1ccccc1 [Compound 147] | 44.5 % of Ctl | 70.2 % of Ctl | 79.5 % of Ctl | –
9 | CC(=O)NCCOCCNc1nc(Nc2ccc(O)cc2)nc(Nc2ccc(C(=O)NCc3ccccc3)cc2)n1 [Compound 140] | 11.5 % of Ctl | 4.5 % of Ctl | 10.9 % of Ctl | –
10 | O=C(NCc1ccccc1)c1ccc(Nc2nc(NCCOCCNC(=O)c3ccccc3C(F)(F)F)nc(Nc3ccc(O)cc3)n2)cc1 [Compound 134] | 14.0 % of Ctl | 27.7 % of Ctl | 46.7 % of Ctl | –
11 | O=C(NCCOCCNc1nc(Nc2ccc(O)cc2)nc(Nc2ccc(C(=O)NCc3ccccc3)cc2)n1)c1ccc(F)cc1 [Compound 136] | 33.3 % of Ctl | 64.1 % of Ctl | 77.9 % of Ctl | –
12 | O=C(NCCOCCOCCNc1nc(NCCOCCOCCNC(=O)c2ccccc2)nc(Nc2ccc(O)cc2)n1)c1ccccc1 [Compound 151] | – | 0.7 % of Ctl | 8.4 % of Ctl | –
13 | O=C(NCc1ccc(F)cc1)c1ccc(Nc2nc(Nc3ccc(O)cc3)nc(Nc3ccc(C(=O)NCc4ccc(F)cc4)cc3)n2)cc1 [Compound 148] | 8.4 % of Ctl | 12.9 % of Ctl | 20.7 % of Ctl | –
14 | N[C@H](Cc1ccccc1)C(=O)NCCOCCNc1nc(Nc2ccc(O)cc2)nc(Nc2ccc(C(=O)NCc3ccccc3)cc2)n1 [Compound 133] | 4.3 % of Ctl | 12.6 % of Ctl | 19.4 % of Ctl | –
15 | O=C(NCCOCCOCCNc1nc(Nc2ccc(O)cc2)nc(Oc2ccc(C(=O)NCc3ccccc3)cc2)n1)c1ccccc1 [Compound 83] | – | – | – | Inh (% of Ctl) 0.5 μM: 4.1 % of Ctl; Inh (% of Ctl) 2.5 μM: 10.4 % of Ctl; Inh (% of Ctl) 5 μM (5 μM compound): 42.0 % of Ctl; IC50 ([3H]PGE2 uptake, MDCK cells with rat PGT): 609 nM
16 | COc1ccc(C(=O)NCCOCCNc2nc(Nc3ccc(O)cc3)nc(Nc3ccc(C(=O)NCc4ccccc4)cc3)n2)cc1 [Compound 137] | 42.0 % of Ctl | 64.9 % of Ctl | 75.6 % of Ctl | –
17 | O=C(NCc1ccc(F)cc1)c1ccc(Nc2nc(Nc3ccc(O)cc3)nc(Nc3ccc(CNCc4ccccc4)cc3)n2)cc1 [Compound 149] | 3.8 % of Ctl | 9.1 % of Ctl | 17.6 % of Ctl | –
18 | N[C@@H](C(=O)NCCOCCNc1nc(Nc2ccc(O)cc2)nc(Nc2ccc(C(=O)NCc3ccccc3)cc2)n1)c1ccccc1 [Compound 132] | 15.0 % of Ctl | 22.1 % of Ctl | 32.4 % of Ctl | –
19 | O=C(NCCOCCOCCNc1nc(Nc2ccc(O)cc2)nc(Nc2ccc(C(=O)NCc3ccc(F)cc3F)cc2)n1)c1ccccc1 [Compound 131] | 22.3 % of Ctl | 47.0 % of Ctl | 74.3 % of Ctl | –
20 | CCCCCCCC(=O)c1ccc(Nc2nc(NCCOCCOCCNC(=O)c3ccccc3)nc(Nc3ccc(O)cc3)n2)cc1 [Compound 76] | – | – | – | Inh (% of Ctl) 2.5 μM: 39.9 % of Ctl
21 | O=C(NCCOCCOCCNc1nc(Nc2ccc(C(=O)NCc3ccc(F)cc3)cc2)nc(Nc2ccc3[nH]cnc3c2)n1)c1ccccc1 [Compound 142] | 8.4 % of Ctl | 20.1 % of Ctl | 39.2 % of Ctl | –
22 | O=C(NCCOCCOCCNc1nc(Nc2ccc(C(=O)NCc3ccc(F)cc3)cc2)nc(Nc2ccc(O)c(F)c2)n1)c1ccccc1 [Compound 143] | 33.7 % of Ctl | 57.8 % of Ctl | 69.5 % of Ctl | –
23 | O=C(NCCOCCNc1nc(Nc2ccc(O)cc2)nc(Nc2ccc(C(=O)NCc3ccccc3)cc2)n1)c1ccncc1 [Compound 135] | 13.2 % of Ctl | 28.4 % of Ctl | – | –
